Data on one compound can be found in patent publication US6995178B2, “Insecticidal anthranilamides” (E. I. du Pont de Nemours and Company, priority 2000, dated 2006).

Each structure is given as a SMILES string.

For orientation: melting point means the temperature of the solid-liquid transition.

Compound `Cc1cccc(C(=O)NC(C)C)c1NC(=O)c1cnc(C(F)(F)F)nc1C` [Example 5, 4-Methyl-N-[2-methyl-6-[[(1-methylethyl)amino]carbonyl]phenyl]-2-(trifluoromethyl)-5-pyrimidinecarboxamide] displayed a melting point of 216 to 217 °C.
